Test results as given in patent US8134015B2, “Compound inhibiting in vivo phosphorous transport and medicine containing the same” (Kyowa Hakko Kirin Co., Ltd., priority 2003, dated 2012).

These compounds were tested against T1, rat NaPi-2b (Rattus norvegicus, UniProt Q9JJ09) (assay: Sodium-dependent phosphate uptake of Xenopus oocytes which expressed NaPi-2b (32P)). Conditions: Xenopus oocytes expressing rat NaPi-2b, 32P radioactive phosphorus; read-out: IC50 (phosphate uptake inhibitory activity).
T1 construct: expressed in transfected cells; host or cells: Xenopus oocytes injected with cRNA
T1 sequence (Q9JJ09 1-695): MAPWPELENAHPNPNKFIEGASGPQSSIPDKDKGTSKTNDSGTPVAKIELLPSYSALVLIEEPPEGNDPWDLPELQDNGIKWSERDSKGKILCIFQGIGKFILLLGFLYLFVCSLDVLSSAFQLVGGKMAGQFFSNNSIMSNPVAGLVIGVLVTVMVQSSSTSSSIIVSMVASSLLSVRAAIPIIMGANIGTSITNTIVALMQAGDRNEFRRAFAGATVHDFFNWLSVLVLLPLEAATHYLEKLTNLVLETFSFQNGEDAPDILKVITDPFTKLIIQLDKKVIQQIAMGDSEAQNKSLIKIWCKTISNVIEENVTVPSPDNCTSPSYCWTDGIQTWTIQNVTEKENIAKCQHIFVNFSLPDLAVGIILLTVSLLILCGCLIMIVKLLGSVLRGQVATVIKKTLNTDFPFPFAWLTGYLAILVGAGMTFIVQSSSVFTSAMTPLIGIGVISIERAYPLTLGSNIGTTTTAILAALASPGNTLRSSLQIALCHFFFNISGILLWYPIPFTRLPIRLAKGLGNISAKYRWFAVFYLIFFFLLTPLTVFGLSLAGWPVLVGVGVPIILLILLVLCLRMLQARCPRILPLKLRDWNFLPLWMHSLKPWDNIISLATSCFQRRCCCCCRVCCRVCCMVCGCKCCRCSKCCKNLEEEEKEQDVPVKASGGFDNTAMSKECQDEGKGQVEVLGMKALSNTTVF
Type: cell-based
How it was run: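 Steps: rat NaPi-2b cDNA cloned from small intestine; cRNA made and injected into oocytes; 2-day expression; 32P phosphate uptake with compound; % inhibition at 300/100 μM taken from one curve.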
With `CCN(CC)CCN(CCN(CC)CC)Cc1cccc(C(=O)Nc2ccc(N3CCCCC3)cc2C(=O)N/N=C/c2ccc(F)cc2)c1` [Compound 907, 3-{[Bis-(2-diethylamino-ethyl)-amino]-methyl}-N-[2-(4-fluoro-benzylidene-hydrazinocarbonyl)-4-piperidin-1-yl-phenyl]-benzamide] the IC50 was 6.75 µM.
In the case of `COc1cccc(/C=N/NC(=O)c2cc(Br)ccc2NC(=O)c2ccc(CN(CC(C)O)CC(C)O)cc2)c1` (stereo not drawn) [Compound 723, 4-{[Bis-(2-hydroxy-propyl)-amino]-methyl}-N-[4-bromo-2-(3-methoxy-benzylidene-hydrazinocarbonyl)-phenyl]-benzamide], the IC50 is reported as 18 µM.
`Cc1csc(NC(=O)c2cccc(CN3CCC(N4CCCCC4)CC3)c2)c1C(=O)N/N=C/c1ccc(F)cc1` [Compound 571, 3-[1,4′]Bipiperidinyl-1′-ylmethyl-N-[3-(4-fluoro-benzylidene-hydrazinocarbonyl)-4-methyl-thiophen-2-yl]-benzamide] was tested, and the IC50 was 5.27 µM.
Work on `O=C(Nc1ccc(Cl)cc1C(=O)N/N=C/c1cccc(F)c1)c1cccc(CSCCS(=O)(=O)O)c1` [Compound 691, 2-{3-[4-Chloro-2-(3-fluoro-benzylidene-hydrazinocarbonyl)-phenylcarbamoyl]-benzylsulfanyl}-ethanesulfonic acid] yielded an IC50 of 97 µM.
`Cc1ccc(/C=N/NC(=O)c2cc(Br)ccc2NC(=O)c2cccnc2)cc1C` [Compound 176, N-[4-Bromo-2-(3,4-dimethyl-benzylidene-hydrazinocarbonyl)-phenyl]-nicotinamide] showed an IC50 of 4.1 µM.
In the case of `Cc1ccccc1/C=N/NC(=O)c1ccccc1NC(=O)c1ccccc1` [Compound 229, N-[2-(2-Methyl-benzylidene-hydrazinocarbonyl)-phenyl]-benzamide], the IC50 is reported as 6.32 µM.
In the case of `COc1ccc(/C=N/NC(=O)c2cc(I)ccc2NC(=O)c2cccc(CN3CCC(N4CCCCC4)CC3)c2)cc1` [Compound 489, 3-[1,4′]Bipiperidinyl-1′-ylmethyl-N-[4-iodo-2-(4-methoxy-benzylidene-hydrazinocarbonyl)-phenyl]-benzamide], the IC50 is reported as less than 3 µM.
`O=C(Nc1ccccc1C(=O)N/N=C/c1cccc(O)c1)c1ccc(F)cc1` [Compound 80, 4-Fluoro-N-[2-(3-hydroxy-benzylidene-hydrazinocarbonyl)-phenyl]-benzamide] was tested, and the IC50 was 10.9 µM.
For `Cc1ccc(/C=N/NC(=O)c2cc(Cl)ccc2NC(=O)c2cccc(CN(C)CCO)c2)cc1C` [Compound 398, N-[4-Chloro-2-(3,4-dimethyl-benzylidene-hydrazinocarbonyl)-phenyl]-3-{[(2-hydroxy-ethyl)-methyl-amino]-methyl}-benzamide], the IC50 was less than 0.3 µM.
In the case of `COc1ccc(C(=O)Nc2ccc(C)cc2C(=O)N/N=C/c2ccc(F)cc2)cc1OC` [Compound 147, N-[2-(4-Fluoro-benzylidene-hydrazinocarbonyl)-4-methyl-phenyl]-3,4-dimethoxy-benzamide], the IC50 is reported as 7.68 µM.
Compound `O=C(Nc1ccc(Br)cc1C(=O)N/N=C/c1cccc(O)c1)c1ccc(F)cc1` [Compound 109, N-[4-Bromo-2-(3-hydroxy-benzylidene-hydrazinocarbonyl)-phenyl]-4-fluoro-benzamide] has an IC50 of 6.18 µM.
`Cc1ccc(/C=N/NC(=O)c2cc(Br)ccc2NC(=O)c2ccc(CN3CCC(CO)CC3)cc2)cc1C` [Compound 332, N-[4-Bromo-2-(3,4-dimethyl-benzylidene-hydrazinocarbonyl)-phenyl]-4-(4-hydroxymethyl-piperidin-1-ylmethyl)-benzamide] showed an IC50 of 2.87 µM.
Work on `Cc1ccc(/C=N/NC(=O)c2cc(N3CCSCC3)ccc2NC(=O)c2cccc(CSCCO)c2)cc1C` [Compound 926, N-[2-(3,4-Dimethyl-benzylidene-hydrazinocarbonyl)-4-thiomorpholin-4-yl-phenyl]-3-(2-hydroxy-ethylsulfanylmethyl)-benzamide] yielded an IC50 of less than 1 µM.
`C/C(=N\NC(=O)c1cc(Br)ccc1NC(=O)c1cccc(CN(CC(C)O)CC(C)O)c1)c1cccc(F)c1` (stereo not drawn) [Compound 996, 3-{[Bis-(2-hydroxy-propyl)-amino]-methyl}-N-{4-bromo-2-[1-(3-fluoro-phenyl)-ethylidene-hydrazinocarbonyl]-phenyl}-benzamide] showed an IC50 of 2.66 µM.
Work on `CCN(CC)CCN(CCN(CC)CC)Cc1cccc(C(=O)Nc2sc3c(c2C(=O)N/N=C/c2ccc(C)cc2)CCCC3)c1` [Compound 1056, 3-{[Bis-(2-diethylamino-ethyl)-amino]-methyl}-N-[3-(4-methyl-benzylidene-hydrazinocarbonyl)-4,5,6,7-tetrahydro-benzo[b]thiophen-2-yl]-benzamide] yielded an IC50 of 1.88 µM.
`Cc1ccc(/C=N/NC(=O)c2cc(Cl)ccc2NC(=O)c2cccc(CN(C)CCCN(C)Cc3cccc(C(=O)Nc4ccc(Cl)cc4C(=O)N/N=C/c4ccc(C)c(C)c4)c3)c2)cc1C` [Compound 684, N1-[4-Chloro-2-({2-[(E)-1-(3,4-dimethylphenyl)methylidene]hydrazino}carbonyl}phenyl}-3-{[{3-[(3-{[4-chloro-2-({2-[(E)-1-(3,4-dimethylphenyl)methylidene]hydrazino}carbonyl}anilino}carbonyl}benzyl}(methyl)amino)propyl](methyl)amino)methyl)benzamide] was tested, and the IC50 was 54.3 µM.
With `COc1ccc(C(=O)Nc2ccccc2C(=O)N/N=C/c2ccc(O)cc2)cc1OC` [Compound 19, N-[2-(4-Hydroxy-benzylidene-hydrazinocarbonyl)-phenyl]-3,4-dimethoxy-benzamide] the IC50 was 8.16 µM.
For `O=c1c2c3c(sc2nc(-c2cccc(CSc4nc[nH]n4)c2)n1/N=C/c1ccc(F)cc1)CCCC3` [Compound 648, 3-[(4-Fluoro-benzylidene-)-amino]-2-[3-(1H-[1,2,4]triazol-3-ylsulfanylmethyl)-phenyl]-5,6,7,8-tetrahydro-3H-benzo[4,5]thieno[2,3-d]pyrimidin-4-one], the IC50 was 2.04 µM.
`O=C(Nc1ccc(Br)cc1C(=O)N/N=C/c1cccc(F)c1)c1ccno1` [Compound 510, Isoxazole-5-carboxylic acid [4-bromo-2-(3-fluoro-benzylidene-hydrazinocarbonyl)-phenyl]-amide] showed an IC50 of 1.48 µM.
Compound `COc1ccc(C(=O)Nc2ccc(Br)cc2C(=O)N/N=C/c2cccnc2)cc1OC` [Compound 110, N-[4-Bromo-2-(pyridin-3-ylmethylene-hydrazinocarbonyl)-phenyl]-3,4-dimethoxy-benzamide] has an IC50 of 7.7 µM.
`COc1cc(/C=N/NC(=O)c2ccccc2NC(=O)c2ccc(OC)c(OC)c2)cc(OC)c1` [Compound 53, N-[2-(3,5-Dimethoxy-benzylidene-hydrazinocarbonyl)-phenyl]-3,4-dimethoxy-benzamide] gave an IC50 of 4.05 µM.
For `O=C(Nc1ccccc1C(=O)N/N=C/c1ccc(F)cc1)c1ccccc1F` [Compound 38, 2-Fluoro-N-[2-(4-fluoro-benzylidene-hydrazinocarbonyl)-phenyl]-benzamide], the IC50 was 5.64 µM.
`Cc1ccc(/C=N/NC(=O)c2ccccc2NC(=O)c2ccc(F)cc2)cc1C` [Compound 96, N-[2-(3,4-Dimethyl-benzylidene-hydrazinocarbonyl)-phenyl]-4-fluoro-benzamide] was tested, and the IC50 was 5.94 µM.

Same assay, conditions: phosphate uptake, oocytes expressing rat NaPi-2b; 100 μM, determined from inhibition curve
For `O=C(Nc1ccc(N2CCC(CO)CC2)cc1C(=O)N/N=C/c1ccc(Cl)c(C(F)(F)F)c1)c1cccc(CSCCO)c1` [Compound 1063, N-[2-(4-Chloro-3-trifluoromethyl-benzylidene-hydrazinocarbonyl)-4-(4-hydroxymethyl-piperidin-1-yl)-phenyl]-3-(2-hydroxy-ethylsulfanylmethyl)-benzamide], the inhibition at 100 µM was 63.9%.
